Reference: PubChem BioAssay (NCI)
Several values for one entry are separate records, joined by “and”; a condition that tells them apart may be missing. Equal entries are not always repeated.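 Step 1: Grow cells in 96-well plates. Step 2: Expose to compound for 48 hours at 5 concentrations. Step 3: Interpolate endpoints linearly; if unreached, use highest concentration. GI50 is the concentration that inhibits growth by half. TGI is the concentration that stops growth completely.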

How the values were obtained:
Assay in all cases: DTP human tumour cell line panel, 48 h
SK-OV-3 ovarian = test system: SK-OV-3 ovarian
SF-539 CNS = test system: SF-539 CNS
UO-31 renal = test system: UO-31 renal
HT29 colon = test system: HT29 colon
ACHN renal = test system: ACHN renal
UACC-257 melanoma = test system: UACC-257 melanoma
K-562 leukemia = test system: K-562 leukemia
NCI-H522 lung = test system: NCI-H522 lung
SN12C renal = test system: SN12C renal
A498 renal = test system: A498 renal

Row | SMILES | GI50 (SK-OV-3 ovarian) | TGI (SK-OV-3 ovarian) [µM] | GI50 (SF-539 CNS) | TGI (SF-539 CNS) | GI50 (UO-31 renal) | TGI (UO-31 renal) | GI50 (HT29 colon) | TGI (HT29 colon) | GI50 (ACHN renal) | TGI (ACHN renal) [µM] | GI50 (UACC-257 melanoma) [µM] | TGI (UACC-257 melanoma) [µM] | GI50 (K-562 leukemia) | TGI (K-562 leukemia) [µM] | GI50 (NCI-H522 lung) | TGI (NCI-H522 lung) | GI50 (SN12C renal) | TGI (SN12C renal) [µM] | TGI (A498 renal) | GI50 (A498 renal)
1 | C#Cc1cccc(Nc2ncnc3ccc(-c4cnc(N)nc4)cc23)c1 | 1.53 µM | 4.74 | 2.81 µM | 11.9 µM | 0.515 µM | 7.75 µM | 2.36 µM | 14.6 µM | 0.542 µM | 10.3 | 6.57 | 46 | 3.42 µM | > 100 | 2.11 µM | 11.8 µM | 1.81 µM | 12.7 | – | –
2 | CSC(=NC(=O)c1ccccc1)SCCSC(=NC(=O)c1ccccc1)SC | – | – | – | > 100 µM | – | > 100 µM | – | > 100 µM | – | > 100 | – | > 100 | – | > 100 | – | > 100 µM | – | > 100 | > 100 µM | –
3 | CC1(C)C2=CCCC(=O)[C@@]2(C)CC[C@@H]1O | – | > 100 | – | > 100 µM | – | > 100 µM | – | > 100 µM | – | > 100 | – | > 100 | – | > 100 | – | > 100 µM | – | > 100 | – | –
4 | Oc1ccccc1/C=N\Nc1ccccc1 | 70.4 µM | > 100 | 2.18 µM | 5.59 µM | 2.35 µM | 36.3 µM | 9.39 µM | 28.4 µM | 2.84 µM | 62.2 | 31.1 | > 100 | – | – | 1.73 µM | 82.9 µM | 3.41 µM | > 100 | – | –
5 | CN(CCc1ccccn1)/[N+]([O-])=N/O (tested in a mixture with another compound) | – | – | – | > 100 µM | – | > 100 µM | – | > 100 µM | – | > 100 | – | > 100 | – | > 100 | – | – | – | > 100 | – | –
6 | CCc1cc2c(Nc3ccccc3)c3c(nc2s1)CCCC3 | – | > 100 | – | > 100 µM | – | > 100 µM | – | – | – | > 100 | – | > 100 | – | > 100 | – | – | – | > 100 | > 100 µM | –
7 | O=C(CCN1CCCC1)Nc1ccc2c(Nc3ccc(Br)cc3)c3ccccc3nc2c1 | – | – | 1.55 µM | 2.95 µM | 1.33 µM | 2.61 µM | – | – | 1.23 µM | 2.48 | 1.89 | 3.7 | – | – | – | – | 1.3 µM | 2.69 | 5.82 µM | 1.7 µM
8 | COc1ccc(-c2nsc3c2NC(=O)CC3c2cccc(F)c2)cc1 (stereo not given) | 5.28 µM | > 100 | 5.19 µM | > 100 µM | > 100 µM | > 100 µM | 3.11 µM | > 100 µM | 5.95 µM | > 100 | – | – | 2.65 µM | > 100 | 3.39 µM | > 100 µM | 5.2 µM | > 100 | – | –
9 | CCOP(=O)(OCC)C(NC(c1ccccc1)c1ccccc1)c1ccsc1 (stereo not given) | – | – | 24 µM | 43.1 µM | 33.1 µM | > 100 µM | – | – | – | – | – | – | 14.9 µM | 56.5 | 25.2 µM | 74.5 µM | 16.7 µM | 30.3 | 49.6 µM | 30.8 µM
10 | NS(=O)(=O)c1ccc(-n2nc(-c3ccccc3)cc2-c2cc(O)ccc2O)cc1 | – | – | – | – | > 100 µM | > 100 µM | 74.8 µM | > 100 µM | 89.8 µM | > 100 | 34.4 | > 100 | 40 µM | > 100 | > 100 µM | > 100 µM | > 100 µM | > 100 | – | –
11 | COc1ccc(C2CC(c3ccc4ccccc4c3)=NN2c2nc(O)c(C3=c4cc(Cl)ccc4=NC3=O)s2)cc1 (stereo not given) | 0.0217 µM and < 0.005 µM | – | 0.0195 µM and < 0.005 µM | 0.0402 µM and < 0.005 µM | 0.0193 µM and < 0.005 µM | 0.0436 µM and < 0.005 µM | 0.0307 µM and < 0.005 µM | 0.771 µM and 0.556 µM | 0.025 µM and < 0.005 µM | – | – | – | 0.0371 µM and < 0.005 µM | 1.65 | 0.0183 µM and < 0.005 µM | 0.0402 µM and < 0.005 µM | 0.0264 µM and < 0.005 µM | – | 0.0419 µM and < 0.005 µM | 0.0166 µM and < 0.005 µM
12 | COc1ccc2[nH]cc(Cc3c[nH]c4ccc(OC)cc34)c2c1 | – | – | 17.2 µM | 33.1 µM | 27.5 µM | > 100 µM | 17.9 µM | 32.3 µM | 20 µM | 43.9 | 32.4 | 88.1 | 19.1 µM | 71.4 | 25.5 µM | 77.3 µM | 17.5 µM | 31.3 | 14.5 µM | 3.32 µM
13 | CC[C@H](C)[C@H](NC(=O)[C@H]1CCCCN1C)C(=O)N(C)[C@H](C[C@@H](OC(C)=O)c1nc(C(=O)NC23C4C5C2C2C3C4C52C(=O)OC)cs1)C(C)C (stereo not given in full) | 0.0102 µM and 0.0025 µM | > 25 | 0.00115 µM and 0.0025 µM | 0.0114 µM and 0.00941 µM | 0.0358 µM and 0.0114 µM | > 25 µM | 0.00114 µM and 0.0025 µM | 0.0612 µM and 0.0493 µM | 0.0189 µM and 0.0025 µM | 4.03 | – | – | 0.000952 µM and 0.0025 µM | > 25 | 0.000331 µM and < 0.0025 µM | – | 0.00199 µM and 0.0025 µM | 9.33 | 0.133 µM | 0.0139 µM and 0.00317 µM
14 | CCCCCCCCCCCCCP(=O)(OC)OC | – | 33.3 | – | 30.9 µM | – | 29.8 µM | – | 34.1 µM | – | 32.4 | – | 33.7 | – | 45.2 | – | 26.6 µM | – | 35 | – | –
15 | O=C(O)CC(S)C(=O)O.[Li+].[Sb] (stereo not given) | – | – | – | – | > 100 µM | > 100 µM | 88.6 µM | > 100 µM | > 100 µM | > 100 | > 100 | > 100 | 85.3 µM | > 100 | – | – | > 100 µM | > 100 | > 100 µM | > 100 µM
16 | CC(=O)CCn1[nH]c(=O)c(Cl)c(Cl)c1=O | – | – | – | > 100 µM | – | > 100 µM | – | > 100 µM | – | > 100 | – | > 100 | – | > 100 | – | – | – | > 100 | > 100 µM | –
17 | O=C(CS(=O)c1nc2ccccc2nc1-c1ccccc1)Nc1ccc(Cl)cc1 (stereo not given) | 51.3 µM | > 100 | 14 µM | > 100 µM | 25 µM | > 100 µM | 48.5 µM | > 100 µM | 21.4 µM | 51.1 | 24.7 | 77.3 | – | – | 18.6 µM | 60.1 µM | 18.2 µM | 33.7 | 43 µM | 19 µM
